The target in series [1] is T1, human serotonin 5-HT1A receptor (Homo sapiens, UniProt P08908).
T1 construct: expressed in transfected cells; host or cells: HEK293
T1 sequence (P08908 1-422): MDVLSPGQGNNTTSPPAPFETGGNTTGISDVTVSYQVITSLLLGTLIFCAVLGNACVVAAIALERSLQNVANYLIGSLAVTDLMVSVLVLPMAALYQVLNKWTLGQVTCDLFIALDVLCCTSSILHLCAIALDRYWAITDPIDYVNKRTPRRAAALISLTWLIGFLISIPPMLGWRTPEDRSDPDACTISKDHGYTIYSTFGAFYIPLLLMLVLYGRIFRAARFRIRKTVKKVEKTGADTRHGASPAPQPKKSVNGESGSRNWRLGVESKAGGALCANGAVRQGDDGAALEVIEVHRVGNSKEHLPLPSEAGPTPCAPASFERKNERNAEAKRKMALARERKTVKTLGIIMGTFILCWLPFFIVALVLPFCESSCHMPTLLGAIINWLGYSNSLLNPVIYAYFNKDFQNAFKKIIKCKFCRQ
Briefly: Competition radioligand binding, [3H]-8-OH-DPAT, HEK293 membranes. To be noted: human cloned 5-HT1A.
Description: (§1) Experiments were carried out in membranes from cell lines stably expressing the human cloned receptors.
(§2) Competition radioligand binding assays were performed on membranes isolated from cell lines stable expressing the cloned human receptors, which were either in-house or commercially available. […] Assays (250 μL assay final volume) were carried out in 96-well polypropylene plates in duplicate. In short, suspension of appropriate membrane protein was incubated in assay buffer with addition of the corresponding radioligand, in the presence or absence of tested compound or reference compound. […] After the incubation, the content of the test plates was transferred to 96-well plates with glass fibre filter GF/B or GF/C, previously pre-treated with polyethyleneimine (PEI), and rapidly filtered with the use of vacuum, followed by rapid washing with cold (4 °C) wash buffer. After that the filter plates were dried at 60 °C for 1 h. Then, 30 μL of liquid scintillation cocktail (UniverSol-ES, MP Biomedicals, Solon, OH) was added to each well of the filter plates and the radioactivity was measured in a MicroBeta2 microplate scintillation counter (PerkinElmer, Madrid, Spain).
(§3) Competition binding curves were fitted to a one-site competition binding model (Fit Ki) with the use of Prism 7 software (GraphPad, San Diego, CA). logKi (log of the equilibrium dissociation constant (Ki)) values were obtained after constraining the concentration of radioligand employed in the assay and its dissociation constant (KD) as determined in saturation radioligand binding assays.

The test system of series [2] is mice. Nature of the series: Elevated plus maze (EPM) test (anxiety). The note with it: 60 min before test.
The target of series [3] is T2, human serotonin 5-HT2A receptor (Homo sapiens, UniProt P28223).
T2 construct: expressed in transfected cells; host or cells: CHO-K1
T2 sequence (P28223 whole entry): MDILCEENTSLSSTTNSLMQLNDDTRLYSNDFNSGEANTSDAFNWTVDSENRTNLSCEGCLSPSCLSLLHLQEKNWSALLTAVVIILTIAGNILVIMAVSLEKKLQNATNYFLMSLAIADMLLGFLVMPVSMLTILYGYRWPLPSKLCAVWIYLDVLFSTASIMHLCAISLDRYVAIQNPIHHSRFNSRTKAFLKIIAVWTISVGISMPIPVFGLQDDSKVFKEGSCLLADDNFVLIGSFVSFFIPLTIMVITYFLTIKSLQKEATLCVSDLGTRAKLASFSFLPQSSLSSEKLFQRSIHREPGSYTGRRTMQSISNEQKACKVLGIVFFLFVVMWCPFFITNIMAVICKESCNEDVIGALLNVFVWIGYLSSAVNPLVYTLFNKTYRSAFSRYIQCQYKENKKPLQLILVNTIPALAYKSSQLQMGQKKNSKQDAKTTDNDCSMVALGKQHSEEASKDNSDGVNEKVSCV
Briefly: Competition radioligand binding, [3H]-Ketanserin, CHO-K1 membranes. To be noted: for Ki: human cloned 5-HT2A; for pKi 5-HT2A/pKi D2: ratio of pKi values.
Description: as §1, §2, §3

In the next series the target is T3, human 5-HT2A receptor (Homo sapiens, UniProt P28223).
T3 construct: expressed in transfected cells; host or cells: CHO-K1
T3 sequence (P28223 whole entry): as above
Nature of the series: Functional assay of inositol phosphate production (5-HT2A antagonism), CHO-K1 cells. In kind it is cell-based. To be noted: for inhibition at 10 µM: CHO-K1, read-out: 5-HT2A antagonism %inh. of 5-HT response; for Kb: read-out: 5-HT2A antagonism (IP signalling) Kb.

A further series addresses human D2S receptor (Homo sapiens, UniProt P14416). Briefly: Functional assay of cAMP signalling (D2 antagonism), CHO-K1 cells. The note with it: for inhibition at 1 µM: CHO-K1, read-out: % of inhibition of 1 µM dopamine response; for inhibition at 10 µM: CHO-K1, read-out: D2 antagonism %inh. of DA response.
A further series concerns the target T4, human 5-HT7 receptor (Homo sapiens, UniProt P34969).
T4 construct: expressed in transfected cells; host or cells: HEK293
Nature of the series: Competition radioligand binding, [3H]-SB269970, HEK293 membranes.

Series [4] concerns the target T5, human muscarinic M1 receptor (Homo sapiens, UniProt P11229).
T5 construct: expressed in transfected cells; host or cells: CHO-K1
T5 sequence (P11229 1-460): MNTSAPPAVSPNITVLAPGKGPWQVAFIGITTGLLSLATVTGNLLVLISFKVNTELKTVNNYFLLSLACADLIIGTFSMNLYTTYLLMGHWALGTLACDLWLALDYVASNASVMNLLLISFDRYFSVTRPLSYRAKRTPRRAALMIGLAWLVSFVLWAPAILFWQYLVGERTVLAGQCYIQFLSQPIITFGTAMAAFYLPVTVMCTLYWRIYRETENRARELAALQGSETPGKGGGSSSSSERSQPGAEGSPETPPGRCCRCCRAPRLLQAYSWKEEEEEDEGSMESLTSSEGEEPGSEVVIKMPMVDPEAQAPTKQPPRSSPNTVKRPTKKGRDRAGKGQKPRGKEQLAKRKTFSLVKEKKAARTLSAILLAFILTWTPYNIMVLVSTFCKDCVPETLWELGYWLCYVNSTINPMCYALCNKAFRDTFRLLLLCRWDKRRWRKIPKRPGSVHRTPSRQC
Nature of the series: Competition radioligand binding, [3H]-pirenzepine, CHO-K1 membranes. The note with it: read-out: % inh. at 10 μM M1.
Description: as §2, §3

For series [5], the target named is T6, human dopamine D1 receptor (Homo sapiens, UniProt P21728).
T6 construct: expressed in transfected cells; host or cells: CHO-K1
T6 sequence (P21728 whole entry): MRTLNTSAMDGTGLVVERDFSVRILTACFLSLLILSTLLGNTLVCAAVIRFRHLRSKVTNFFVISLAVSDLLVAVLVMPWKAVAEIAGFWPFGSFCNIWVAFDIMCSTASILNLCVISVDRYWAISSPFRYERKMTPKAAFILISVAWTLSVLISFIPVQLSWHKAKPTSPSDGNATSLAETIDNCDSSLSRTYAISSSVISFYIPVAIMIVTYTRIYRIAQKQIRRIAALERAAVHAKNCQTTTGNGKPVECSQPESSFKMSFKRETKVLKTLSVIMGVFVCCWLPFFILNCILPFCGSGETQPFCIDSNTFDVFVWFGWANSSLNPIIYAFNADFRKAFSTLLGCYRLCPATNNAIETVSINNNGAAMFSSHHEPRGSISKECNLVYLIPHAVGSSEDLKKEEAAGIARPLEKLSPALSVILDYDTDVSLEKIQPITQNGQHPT
Briefly: Competition radioligand binding, [3H]-SCH-23390, CHO-K1 membranes.
Description: Competition radioligand binding assays were performed on membranes isolated from cell lines stable expressing the cloned human receptors, which were either in-house or commercially available. […] Assays (250 μL assay final volume) were carried out in 96-well polypropylene plates in duplicate. In short, suspension of appropriate membrane protein was incubated in assay buffer with addition of the corresponding radioligand, in the presence or absence of tested compound or reference compound. […] Then, 30 μL of liquid scintillation cocktail (UniverSol-ES, MP Biomedicals, Solon, OH) was added to each well of the filter plates and the radioactivity was measured in a MicroBeta2 microplate scintillation counter (PerkinElmer, Madrid, Spain).
as §3

For series [6], the system named is mice. Nature of the series: Amphetamine-induced hyperactivity. The note with it: 30 min before amphetamine 5 mg/kg s.c., p < 0.0001.
Another series concerns the target T7, human 5-HT1A receptor (Homo sapiens, UniProt P08908).
T7 construct: expressed in transfected cells; host or cells: HEK293
T7 sequence (P08908 1-422): T1 sequence (P08908 1-422)
Briefly: Functional assay of cAMP signalling (5-HT1A agonism), HEK293 cells. It is filed as cell-based. To be noted: for inhibition at 10 µM: HEK293, 10 µM compound, 1 µM forskolin, read-out: 5-HT1A agonism %inh. of FSK response.

For series [7], the system named is mice. Briefly: Spontaneous locomotor activity. The note with it: recorded 30 min, 30 min after injection.
For series [8], the target named is T8, human dopamine D3 receptor (Homo sapiens, UniProt P35462).
T8 construct: expressed in transfected cells; host or cells: CHO-K1
T8 sequence (P35462 whole entry): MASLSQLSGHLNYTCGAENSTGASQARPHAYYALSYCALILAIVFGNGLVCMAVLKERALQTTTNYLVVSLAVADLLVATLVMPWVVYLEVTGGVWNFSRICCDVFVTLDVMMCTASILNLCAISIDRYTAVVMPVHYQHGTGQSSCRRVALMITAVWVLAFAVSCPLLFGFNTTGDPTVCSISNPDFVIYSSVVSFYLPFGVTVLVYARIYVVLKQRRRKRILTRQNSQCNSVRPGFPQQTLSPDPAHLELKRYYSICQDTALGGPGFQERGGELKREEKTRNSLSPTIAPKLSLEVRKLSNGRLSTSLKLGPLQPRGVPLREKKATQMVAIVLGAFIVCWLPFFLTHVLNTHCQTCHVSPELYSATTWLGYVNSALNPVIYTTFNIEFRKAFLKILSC
Briefly: Competition radioligand binding, [3H]-spiperone, CHO-K1 membranes.
Description: as §2, §3

Series [9] deals with T9, human histamine H1 receptor (Homo sapiens, UniProt P35367).
T9 construct: expressed in transfected cells; host or cells: CHO-K1
T9 sequence (P35367 whole entry): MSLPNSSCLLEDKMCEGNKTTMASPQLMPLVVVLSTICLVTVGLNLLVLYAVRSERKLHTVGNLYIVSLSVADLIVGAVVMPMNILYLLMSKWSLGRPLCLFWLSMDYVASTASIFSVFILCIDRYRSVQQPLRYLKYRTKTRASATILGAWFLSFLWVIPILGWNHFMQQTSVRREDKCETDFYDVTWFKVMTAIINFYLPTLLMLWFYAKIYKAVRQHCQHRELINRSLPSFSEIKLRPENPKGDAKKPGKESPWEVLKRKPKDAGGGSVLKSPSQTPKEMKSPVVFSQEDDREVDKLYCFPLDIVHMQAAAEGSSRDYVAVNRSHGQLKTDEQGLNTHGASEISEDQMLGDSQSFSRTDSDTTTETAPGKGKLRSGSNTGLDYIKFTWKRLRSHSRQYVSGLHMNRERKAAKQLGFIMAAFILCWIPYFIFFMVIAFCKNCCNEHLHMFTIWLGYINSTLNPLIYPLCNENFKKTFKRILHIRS
Briefly: Competition radioligand binding, [3H]-pyrilamine, CHO-K1 membranes.
Description: as §2, §3

Series [10] deals with mice. Nature of the series: Rota-rod test (motor coordination). It is filed as in vivo. To be noted: 60 min after treatment, 3 min. The protocol:
To fully assess the impact of selected compounds on animals’ motor coordination, both compounds (at the same doses as were used for spontaneous locomotor activity measurements) were tested also in the rota-rod test. The applied protocol has been already validated in our laboratory[12]^,[62]^,[63]. […] The time spent by each mouse on the rota-rod was measured for 3 min. The additional aim of the rota-rod test was to confirm the appropriate selection of doses for further behavioural examination. […] After such confirmation, the above-mentioned doses were chosen for the rest of behavioural tests.
(In general: The rotarod test checks motor coordination on a turning rod.)

Series [11] concerns mice. Briefly: Passive avoidance (PA) test (memory). To be noted: 60 min before test.
Series [12] addresses T10, human dopamine D2 (D2S) receptor (Homo sapiens, UniProt P14416).
T10 construct: expressed in transfected cells; host or cells: CHO-K1
Briefly: Competition radioligand binding, [3H]-spiperone, CHO-K1 membranes. The note with it: human cloned D2S; read-out: Ki D2 (converted).
Description: as §1, §2, §3

[13] abbreviates: read-out: Ki 5-HT1A (converted).

Like-named read-outs stand apart in the source and are kept apart here.

Chain of human D2S receptor (P14416 1-414 isoform P14416-2): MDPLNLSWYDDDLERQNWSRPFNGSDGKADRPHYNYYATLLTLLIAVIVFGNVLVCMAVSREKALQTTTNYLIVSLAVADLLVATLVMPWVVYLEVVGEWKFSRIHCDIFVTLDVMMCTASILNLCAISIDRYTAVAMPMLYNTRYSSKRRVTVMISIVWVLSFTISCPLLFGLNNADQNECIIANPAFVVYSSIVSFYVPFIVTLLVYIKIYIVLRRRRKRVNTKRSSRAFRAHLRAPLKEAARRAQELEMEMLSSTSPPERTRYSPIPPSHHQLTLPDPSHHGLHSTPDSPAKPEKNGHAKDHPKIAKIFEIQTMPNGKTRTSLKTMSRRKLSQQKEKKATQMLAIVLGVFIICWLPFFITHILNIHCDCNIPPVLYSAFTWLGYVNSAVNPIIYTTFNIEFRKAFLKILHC
T4 sequence (P34969 whole entry): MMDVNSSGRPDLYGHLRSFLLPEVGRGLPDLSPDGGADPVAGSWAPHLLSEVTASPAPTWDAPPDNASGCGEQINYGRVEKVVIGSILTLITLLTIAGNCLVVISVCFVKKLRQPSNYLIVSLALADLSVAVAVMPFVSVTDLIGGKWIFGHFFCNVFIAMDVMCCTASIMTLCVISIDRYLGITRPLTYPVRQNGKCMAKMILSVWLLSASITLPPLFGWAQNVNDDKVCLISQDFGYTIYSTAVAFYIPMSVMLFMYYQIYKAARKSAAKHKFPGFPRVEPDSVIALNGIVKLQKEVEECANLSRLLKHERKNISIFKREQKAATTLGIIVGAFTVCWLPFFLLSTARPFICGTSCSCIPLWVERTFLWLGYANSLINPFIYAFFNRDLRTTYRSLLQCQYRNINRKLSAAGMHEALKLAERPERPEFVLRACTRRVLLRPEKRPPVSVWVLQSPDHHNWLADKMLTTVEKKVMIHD
T10 sequence (P14416 1-414 isoform P14416-2): as the sequence (P14416 1-414 isoform P14416-2) above
Description for human 5-HT1A receptor: The activity of selected compounds at 5-HT1A receptor was investigated in cell-based functional assays of cAMP signalling in the HEK293 cell line stably expressing the cloned human 5-HT1A receptor also employed for the radioligand binding assays. […] Test compounds were added to the assay plates from 5× working dilution intermediate plates, which were prepared by means of acoustic noncontact dispensing of the compounds, keeping vehicle concentration (0.1% DMSO) constant in the assay.
Description for human 5-HT2A receptor: The activity of selected compounds at 5-HT2A receptors was investigated in cell-based functional assays of IP production in the CHO-K1 cell line stably expressing the cloned human 5-HT2A receptor also employed for the radioligand binding assays. Twenty-four hours before the experiment, cells in culture were seeded in complete growth medium prepared with dialysed foetal bovine serum, in half-area, white, 96-well tissue culture plates (Corning®, Fisher Scientific SL, Madrid, Spain). At the day of assay, plates were washed with assay buffer (kit stimulation buffer) and incubated with test compounds for 10 min at 37 °C. Test compounds were added to the assay plates from 7× working dilution intermediate plates that were prepared by means of acoustic noncontact dispensing of the compounds, keeping vehicle concentration (0.1% DMSO) constant in the assay. […] After this time, cellular IP levels were quantified by using the HTRF-based inositol monophosphate kit IP-One Gq kit (Cisbio, Bioassays, Codolet, France) following the manufacturer’s protocol. […] Basal IP levels were determined in control wells in the absence of compound and agonist. […] Kb value of the compounds was estimated as described above for functional assays of cAMP signalling at D2 receptors.
Description for human 5-HT7 receptor: as §2, §3

As to `O=C(NCCCN1CCN(c2cccc(F)c2)CC1)c1n[nH]c2ccccc12` [Compound 10, N-(3-(4-(3-fluorophenyl)piperazin-1-yl)propyl)-1H-indazole-3-carboxamide], the Ki in series [1] (mean ± SEM, read-out: pKi 5-HT1A (converted)) is 112 nM; in series [1] (setting [13]), 114 nM; in [3], 94.4 nM; at human 5-HT7 receptor, 589 nM; in [5], 181 nM; in [8] it was 719 nM. Besides, the Ki in [9] is 1000 nM. For the same compound, the “Effect on anxiety in EPM test” value with mice [2] (40 mg/kg i.p.) is “no statistically significant effect on the EPM performance”. Moreover, the “pKi 5-HT2A/pKi D2” value in [3] is given as 1.07. For the same compound, the inhibition at 10 µM on human 5-HT2A receptor is 96.8 ± 2%; at human D2S receptor, 52.6 ± 9.8%; in series [4] it was 0%; on human 5-HT1A receptor, 90.2 ± 4.1%. The Kb was determined as 101 ± 31 nM at human 5-HT2A receptor and 31.2 nM at human D2S receptor. The inhibition at 1 µM at human D2S receptor is 50.8 ± 5.4%. Moreover, the “Effect on amphetamine-induced hyperactivity” value in the series with mice [6] (40 mg/kg i.p.) is “significantly reduced hyperactivity induced by amphetamine”. Moreover, the EC50 at human 5-HT1A receptor is 356 ± 83 nM. The Spontaneous locomotor activity entry in the series with mice [7] (20, 40, and 80 mg/kg i.p.) is “did not induce statistically significant changes”. The “Motor coordination (rota-rod)” value with mice [10] (20, 40, and 80 mg/kg i.p.) is on record as “lack of statistically significant difference”. The “Effect on PA performance (memory acquisition)” value in the series with mice [11] (40 mg/kg i.p.) is on record as “no statistically significant effect on PA performance”.
On to `O=C(NCCCN1CCN(c2ccccc2)CC1)c1n[nH]c2ccccc12` [Compound 1, N-(3-(4-phenylpiperazin-1-yl)propyl)-1H-indazole-3-carboxamide], for which the Ki is 155 nM in [1] (setting [13]); 35.6 nM in [3]; 69 nM in series [12]; 540 nM on human 5-HT7 receptor; 241 nM in series [5]; 711 nM in series [8]. Also, the Ki in [9] is 474 nM. Further, the “Effect on anxiety in EPM test” value in the series with mice [2] (10 mg/kg i.p.) is on record as “anxiolytic effect”. Also, the “Percentage of open arm entries (EPM)” value in the series on mice [2] (10 mg/kg i.p., vs. control) is given as “increase”. The “Percentage of open arm time (EPM)” value with mice [2] (10 mg/kg i.p., vs. control) was “increase”. Besides, in series [3], the “pKi 5-HT2A/pKi D2” value was 1.04. In addition, the inhibition at 10 µM at human 5-HT2A receptor was 99.1 ± 2.5%; at human D2S receptor, 50.3 ± 6.3%; in [4], 21 ± 6%; on human 5-HT1A receptor, 85.1 ± 3.3%. Besides, the values for the Kb on human 5-HT2A receptor and on human D2S receptor were 80.2 ± 20.1 nM and 22.5 nM, respectively. Also, on human D2S receptor, the inhibition at 1 µM amounted to 48.5 ± 4.9%. Also, the “Effect on amphetamine-induced hyperactivity” value with mice [6] (10 mg/kg i.p.) is listed as “significantly reduced hyperactivity induced by amphetamine”. In addition, a half-maximal effect on human 5-HT1A receptor (EC50) was put at 324 ± 69 nM. For the same compound, the Spontaneous locomotor activity entry is “did not impair animals’ mobility” in the series on mice [7] (10 mg/kg i.p.); “statistically significant decrease in the locomotor activity” in the series on mice [7] (20 mg/kg i.p., p < 0.05); “statistically significant decrease in the locomotor activity” in the series on mice [7] (40 mg/kg i.p., p < 0.05). For the same compound, in the series with mice [10] (10, 20, and 40 mg/kg i.p.), the “Motor coordination (rota-rod)” value is given as “lack of statistically significant difference”. In addition, the “Effect on PA performance (memory acquisition)” value in the series on mice [11] (10 mg/kg i.p.) is reported as “no statistically significant effect on PA performance”.

As a reminder, the Kb is the affinity of an antagonist, worked out from how it opposes an agonist. The term EC50 denotes the concentration that produces a half-maximal response. High values mean lower potency in that assay, low ones higher potency in that assay.
